Test results from patent publication EP0800516B1, “FIBRINOGEN RECEPTOR ANTAGONISTS HAVING SUBSTITUTED (b)-AMINO ACID RESIDUES AND PHARMACEUTICAL COMPOSITIONS COMPRISING THE SAME” (Nippon Steel Corporation, priority 1994, dated 1996).

Tested on: Human Platelet Aggregation
Assay: in vitro human platelet aggregation using PRP (collagen-induced, light transmittance)
Type: cell-based
Settings: aggregation induced with collagen (final concentration: 5 µ g/ml), 37°C
Excerpt: (Measurement of in vitro Human Platelet Aggregation using PRP)
Healthy male volunteers who had not taken any medicines for at least two weeks were selected as subjects. Blood was collected from the forearm vein of each subject on an empty stomach using a #19 needle and a plastic syringe preliminarily charged with 1/10 volume of a 3.8% sodium citrate solution. Immediately after the blood collection, the syringe was shaken gently to mix the blood with the sodium citrate solution. The mixed blood was centrifuged (1100 rpm, 250 g) at room temperature for 15 minutes and the rotation was stopped without applying the brake. Then, the supernatant was collected with a Komagome type pipette to obtain platelet-rich plasma (PRP). The PRP was stored at room temperature. The blood remaining after centrifuging was further centrifuged (3500 rpm, 1500 g) at room temperature for 15 minutes and the rotation was stopped without applying the brake. The supernatant was collected to obtain platelet-poor plasma (PPP). After the preparation of the PRP, the number of platelets was counted and only samples containing more than 2 x 10^8 of platelets per milliliter were subjected to the following experiments.
Platelet aggregation was measured using an 8-channel platelet aggregation measuring instrument (Hematracer, Nikoh Bioscience, Tokyo, Japan) on the basis of the change in light transmittance through the PRP. First, the PPP and PRP (each 200µl) were placed in glass cuvettes and incubated at 37°C . Thereafter, the transmittance was measured. The transmittance of the PPP was determined as 100% and that of the PRP as 0%. Then, 10µl of physiological saline or a sample-containing physiological saline was added to the PRP and incubated at 37°C for one minute. A collagen solution (10 µ l) at a concentration of […] was added (final concentration: 5 µ g/ml) to induce aggregation and thereafter the transmittance was measured over 7 minutes. After aggregation with collagen and ADP was confirmed, only those samples in which the maximum aggregation with collagen was at least 70% were subjected to the experiment.
The sample was dissolved in physiological saline to give a concentration of 2.2 x 10 ^-2 M and a 2-fold dilution series was prepared for use in the experiments. The samples insoluble in the physiological saline were dissolved in physiological saline containing 10% DMSO (dimethyl sulfoxide).
The results were calculated as follows: [formula]
A graph was constructed by plotting the percent aggregation inhibition against the sample concentration and the concentration at which the aggregation was inhibited by 50% (IC50) was calculated from the graph.

Compound	IC50 [µM]
CC(CC(=O)N1CCC(CC(=O)O)CC1)NC(=O)c1ccc(C(=N)N)cc1 (stereo not drawn) [Comparative Example 2, N-(N-4-amidinobenzoyl-β-methyl-β -alanyl)-4-piperidineacetic acid, reference compound]	50
N=C(N)c1ccc(C(=O)NC(CC(=O)N2CCC(CC(=O)O)CC2)c2ccccc2)cc1 (stereo not drawn) [Comparative Example 3, N-(N-4-amidinobenzoyl-β-phenyl-β -alanyl)-4-piperidineacetic acid, reference compound]	5.2
CCC(CNC(=O)c1ccc(C(=N)N)cc1)C(=O)N1CCC(CC(=O)O)CC1 (stereo not drawn) [Comparative Example 4, N-(N-4-amidinobenzoyl-α-ethyl-β -alanyl)-4-piperidineacetic acid, reference compound]	0.89
CCC(C(=O)N1CCC(CC(=O)O)CC1)C(NC(=O)c1ccc(C(=N)N)cc1)c1ccccc1 (stereo not drawn) [Comparative Example 5, N-(N-4-amidinobenzoyl-β-phenyl-α -ethyl-β-alanyl)-4-piperidineacetic acid, reference compound]	16
CCC(C(=O)N1CCC(CC(=O)O)CC1)C(/C=C/c1ccccc1)NC(=O)c1ccc(C(=N)N)cc1 (stereo not drawn) [Comparative Example 6, N-(N-4-amidinobenzoyl-β-trans-styryl-α-ethyl-β-alanyl)-4-piperidineacetic acid, reference compound]	85
CC(C)C(CNC(=O)c1ccc(C(=N)N)cc1)C(=O)N1CCC(CC(=O)O)CC1 (stereo not drawn) [Comparative Example 7, N-(N-4-amidinobenzoyl-α-isopropyl-β-alanyl)-4-piperidineacetic acid, reference compound]	17
CC(C)C(C(=O)N1CCC(CC(=O)O)CC1)C(NC(=O)c1ccc(C(=N)N)cc1)c1ccccc1 (stereo not drawn) [Comparative Example 8, N-(N-4-amidinobenzoyl-β-phenyl-α -isopropyl-β-alanyl)-4-piperidineacetic acid, reference compound]	82
CC(C)C(C(=O)N1CCC(CC(=O)O)CC1)C(/C=C/c1ccccc1)NC(=O)c1ccc(C(=N)N)cc1 (stereo not drawn) [Comparative Example 9, N-(N-4-amidinobenzoyl-β-trans-styryl-α-isopropyl-β-alanyl)-4-piperidineacetic acid, reference compound]	90
CC(C(=O)N1CCC(CC(=O)O)CC1)C(NC(=O)c1ccc(C(=N)N)cc1)c1ccccc1 (stereo not drawn) [Comparative Example 10, N-(N-4-amidinobenzoyl-β-phenyl-α-methyl-β-alanyl)-4-piperidineacetic acid, reference compound]	16
CC(C)(CNC(=O)c1ccc(C(=N)N)cc1)C(=O)N1CCC(CC(=O)O)CC1 [Example 1, N-(N-4-amidinobenzoyl-α,α-dimethyl-β-alanyl)-4-piperidineacetic acid]	0.57
CC(C)(C(=O)N1CCC(CC(=O)O)CC1)C(NC(=O)c1ccc(C(=N)N)cc1)c1ccccc1 (stereo not drawn) [Example 2, N-(N-4-amidinobenzoyl-β-phenyl-α,α-dimethyl-β-alanyl)-4-piperidineacetic acid]	0.19
CCC(NC(=O)c1ccc(C(=N)N)cc1)C(C)(C)C(=O)N1CCC(CC(=O)O)CC1 (stereo not drawn) [Example 3, N-(N-4-Amidinobenzoyl-β-ethyl-α,α-dimethyl-β-alanyl)-4-piperidineacetic acid]	0.084
CCCC(NC(=O)c1ccc(C(=N)N)cc1)C(C)(C)C(=O)N1CCC(CC(=O)O)CC1 (stereo not drawn) [Example 4, N-(N-4-amidinobenzoyl-β-n-propyl-α,α-dimethyl-β-alanyl)-4-piperidineacetic acid]	0.089
CC(C)C(NC(=O)c1ccc(C(=N)N)cc1)C(C)(C)C(=O)N1CCC(CC(=O)O)CC1 (stereo not drawn) [Example 5, N-(N-4-amidinobenzoyl-β-isopropyl-α,α-dimethyl-β-alanyl)-4-piperidineacetic acid]	0.19
CCCCC(NC(=O)c1ccc(C(=N)N)cc1)C(C)(C)C(=O)N1CCC(CC(=O)O)CC1 (stereo not drawn) [Example 6, N-(N-4-amidinobenzoyl-β-normal-butyl-α,α-dimethyl-β-alanyl)-4-piperidineacetic acid]	0.084
CCCCCC(NC(=O)c1ccc(C(=N)N)cc1)C(C)(C)C(=O)N1CCC(CC(=O)O)CC1 (stereo not drawn) [Example 7, N-(N-4-amidinobenzoyl-β-normal-pentyl-α,α -dimethyl-β-alanyl)-4-piperidineacetic acid]	0.17
COc1ccc(C(NC(=O)c2ccc(C(=N)N)cc2)C(C)(C)C(=O)N2CCC(CC(=O)O)CC2)cc1 (stereo not drawn) [Example 8, N-(N-4-amidinobenzoyl-β-p-methoxyphenyl-α, α-dimethyl-β-alanyl)-4-piperidineacetic acid]	0.25

Compound	IC50 [µM]
CC(C)(C(=O)N1CCC(CC(=O)O)CC1)C(NC(=O)c1ccc(C(=N)N)cc1)c1cccc(Cl)c1 (stereo not drawn) [Example 9, N-(N-4-amidinobenzoyl-β-m-chlorophenyl-α,α -dimethyl-β-alanyl)-4-piperidineacetic acid]	0.18
CC(C)(C(=O)N1CCC(CC(=O)O)CC1)C(NC(=O)c1ccc(C(=N)N)cc1)c1ccc(F)cc1 (stereo not drawn) [Example 10, N-(N-4-amidinobenzoyl-β-p-fluorophenyl-α, α-dimethyl-β-alanyl)-4-piperidineacetic acid]	0.23
CC(C)(C(=O)N1CCC(CC(=O)O)CC1)C(CCc1ccccc1)NC(=O)c1ccc(C(=N)N)cc1 (stereo not drawn) [Example 11, N-(N-4-amidinobenzoyl-β-phenethyl-α,α-dimethyl-β-alanyl)-4-piperidineacetic acid]	0.16
CC(C)(C(=O)N1CCC(CC(=O)O)CC1)C(CC1CCCCC1)NC(=O)c1ccc(C(=N)N)cc1 (stereo not drawn) [Example 12, N-(N-4-amidinobenzoyl-β-cyclohexylmethyl-α, α-dimethyl-β-alanyl)-4-piperidineacetic acid]	0.17
CC(C)(C(=O)N1CCC(CC(=O)O)CC1)C(NC(=O)c1ccc(C(=N)N)cc1)c1ccoc1 (stereo not drawn) [Example 13, N-(N-4-amidinobenzoyl-β-(3-furyl)-α,α-dimethyl-β-alanyl)-4-piperidineacetic acid]	0.27
CC(C)(C(=O)N1CCC(CC(=O)O)CC1)C(C=Cc1ccccc1)NC(=O)c1ccc(C(=N)N)cc1 (stereo not drawn) [Example 14, N-(N-4-amidinobenzoyl-β-styryl-α,α-dimethyl-β-alanyl)-4-piperidineacetic acid]	0.46
CC(C)(C(=O)N1CCC(CC(=O)O)CC1)C(NC(=O)c1ccc(C(=N)N)cc1)C1CCNCC1 (stereo not drawn) [Example 15, N-(N-4-amidinobenzoyl-β-(4-piperidyl)-α, α-dimethyl-β-alanyl)-4-piperidineacetic acid]	0.18
CC(C)(C(=O)N1CCC(CC(=O)O)CC1)C(NC(=O)c1ccc(C(=N)N)cc1)c1ccc2ccccc2c1 (stereo not drawn) [Example 16, N-(N-4-amidinobenzoyl-β-(2-naphthyl)-α,α -dimethyl-β-alanyl)-4-piperidineacetic acid]	0.33
CC(C)(C(=O)N1CCC(CC(=O)O)CC1)C(NC(=O)c1ccc(C(=N)N)cc1)C1CC1 (stereo not drawn) [Example 17]	0.18
CCCCNC(=N)c1ccc(C(=O)NC(c2cccc(Cl)c2)C(C)(C)C(=O)N2CCC(CC(=O)O)CC2)cc1 (stereo not drawn) [Example 18]	1
CN(C(=O)c1ccc(C(=N)N)cc1)C(c1ccccc1)C(C)(C)C(=O)N1CCC(CC(=O)O)CC1 (stereo not drawn) [Example 21, N-(N-4-amidinobenzoyl-N-methyl-β-phenyl-α, α-dimethyl-β-alanyl)-4-piperidineacetic acid]	0.33
CC(NC(=O)c1ccc(C(=N)N)cc1)C(C)(C)C(=O)N1CCC(CC(=O)O)CC1 (stereo not drawn) [Example 22, N-(N-4-amidinobenzoyl-β-methyl-α,α-dimethyl-β-alanyl)-4-piperidineacetic acid]	0.52
CC(C)(C(=O)N1CCN(CC(=O)O)CC1)C(NC(=O)c1ccc(C(=N)N)cc1)c1ccccc1 (stereo not drawn) [Example 23, N-(N-4-amidinobenzoyl-β-phenyl-α,α-dimethyl-β-alanyl)-4-piperazineacetic acid]	0.62
CC(C)CC(NC(=O)c1ccc(C(=N)N)cc1)C(C)(C)C(=O)N1CCC(CC(=O)O)CC1 (stereo not drawn) [Example 24, N-(N-4-amidinobenzoyl-β-i-butyl-α,α-dimethyl-β-alanyl)-4-piperidineacetic acid]	0.08
CC(C)(C(=O)N1CCC(CC(=O)O)CC1)C(NC(=O)c1ccc(C(=N)N)cc1)c1ccc(Cl)cc1 (stereo not drawn) [Example 25, N-(N-4-amidinobenzoyl-β-p-chlorophenyl-α,α -dimethyl-β-alanyl)-4-piperidineacetic acid]	0.48
COc1ccccc1C(NC(=O)c1ccc(C(=N)N)cc1)C(C)(C)C(=O)N1CCC(CC(=O)O)CC1 (stereo not drawn) [Example 26, N-(N-4-amidinobenzoyl-β-o-methoxyphenyl-α, α-dimethyl-β-alanyl)-4-piperidineacetic acid]	0.34
